The results in this text go back to US20250352512A2, “C4-S[…] DERIVATIVES AND METHODS OF USING” (priority 2022, published 2025).

pEC50, pIC50: −log10 of the molar value. Where two headings read alike, the source gives them in different places. Where only a bound is given, the exact number is not on record here.

Some targets named below: NET (Homo sapiens, UniProt P23975); OPRD1 (Homo sapiens, UniProt P41143); AVPR1A (Homo sapiens, UniProt P37288); HTR2B (5-HT2B) (Homo sapiens, UniProt P41595).
Holding throughout (assay): cell-based
The target of assay [1] is T1, DRD2S (Homo sapiens, UniProt P14416).
T1 sequence (P14416 1-414 isoform P14416-2): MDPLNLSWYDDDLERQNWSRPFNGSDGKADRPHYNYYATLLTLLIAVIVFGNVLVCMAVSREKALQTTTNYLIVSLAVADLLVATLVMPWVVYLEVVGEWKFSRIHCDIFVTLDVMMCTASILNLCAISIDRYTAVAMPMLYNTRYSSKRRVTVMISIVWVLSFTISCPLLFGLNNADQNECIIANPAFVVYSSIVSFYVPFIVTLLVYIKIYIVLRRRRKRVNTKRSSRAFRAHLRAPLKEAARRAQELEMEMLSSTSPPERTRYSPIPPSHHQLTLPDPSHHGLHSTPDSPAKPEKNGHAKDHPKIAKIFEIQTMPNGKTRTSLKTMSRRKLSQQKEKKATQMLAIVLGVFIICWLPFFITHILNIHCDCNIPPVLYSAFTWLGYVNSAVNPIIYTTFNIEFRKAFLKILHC
Assay [2] addresses T2, HTR2A (Homo sapiens, UniProt P28223).
Assay [3] concerns the target T3, CHRM2 (Homo sapiens, UniProt P08172).
T3 sequence (P08172 1-466): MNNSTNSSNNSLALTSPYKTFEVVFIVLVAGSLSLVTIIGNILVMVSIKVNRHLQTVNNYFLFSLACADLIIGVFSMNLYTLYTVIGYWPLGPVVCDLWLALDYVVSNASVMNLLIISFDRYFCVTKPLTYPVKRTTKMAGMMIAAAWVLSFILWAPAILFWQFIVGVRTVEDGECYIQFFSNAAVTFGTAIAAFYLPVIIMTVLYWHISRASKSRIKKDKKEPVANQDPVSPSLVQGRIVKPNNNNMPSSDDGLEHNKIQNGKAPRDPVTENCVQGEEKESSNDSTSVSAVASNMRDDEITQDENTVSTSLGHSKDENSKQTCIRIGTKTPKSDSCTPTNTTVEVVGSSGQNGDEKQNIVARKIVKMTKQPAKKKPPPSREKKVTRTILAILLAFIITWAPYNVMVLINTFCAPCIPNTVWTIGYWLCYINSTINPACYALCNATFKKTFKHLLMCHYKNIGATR

In the next assay the target is T4, HTR3A (5-HT3A) (Homo sapiens, UniProt P46098).
T4 sequence (P46098 24-478): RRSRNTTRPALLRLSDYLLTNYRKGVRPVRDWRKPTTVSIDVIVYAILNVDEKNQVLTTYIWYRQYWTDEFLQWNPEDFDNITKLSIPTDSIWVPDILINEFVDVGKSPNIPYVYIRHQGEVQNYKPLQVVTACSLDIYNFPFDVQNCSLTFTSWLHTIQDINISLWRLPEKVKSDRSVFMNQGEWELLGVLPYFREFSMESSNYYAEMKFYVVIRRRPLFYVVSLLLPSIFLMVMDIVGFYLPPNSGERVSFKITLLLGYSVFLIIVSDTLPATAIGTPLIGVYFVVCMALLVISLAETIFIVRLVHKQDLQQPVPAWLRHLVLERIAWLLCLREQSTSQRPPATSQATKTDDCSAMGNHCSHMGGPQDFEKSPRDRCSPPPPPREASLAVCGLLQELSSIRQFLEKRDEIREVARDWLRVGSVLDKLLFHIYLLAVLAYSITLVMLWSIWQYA

Assay [4] addresses T2, HTR2A. The source holds these as a separate data set.
For the next assay, the target named is T5, CHRM1 (Homo sapiens, UniProt P11229).
T5 sequence (P11229 1-460): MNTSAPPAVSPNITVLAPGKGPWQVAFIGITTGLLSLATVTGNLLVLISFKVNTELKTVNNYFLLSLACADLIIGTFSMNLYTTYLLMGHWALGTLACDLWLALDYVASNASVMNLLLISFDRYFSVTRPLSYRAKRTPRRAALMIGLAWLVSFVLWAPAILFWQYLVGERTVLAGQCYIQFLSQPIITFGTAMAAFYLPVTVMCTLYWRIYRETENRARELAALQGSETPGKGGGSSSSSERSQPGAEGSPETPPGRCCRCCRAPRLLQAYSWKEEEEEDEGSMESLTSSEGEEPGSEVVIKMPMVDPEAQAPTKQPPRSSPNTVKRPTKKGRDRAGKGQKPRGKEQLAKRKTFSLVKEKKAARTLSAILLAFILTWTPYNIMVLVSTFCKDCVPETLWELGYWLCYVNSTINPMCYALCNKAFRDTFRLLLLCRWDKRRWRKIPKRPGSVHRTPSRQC

In assay [5] the target is T1, DRD2S. This is another data set of the same source.
Assay [6] has as its target T3, CHRM2. The source holds these as a separate data set.
The next assay has as its target T6, ADRA2A (Homo sapiens, UniProt P08913).
T6 sequence (P08913 1-465): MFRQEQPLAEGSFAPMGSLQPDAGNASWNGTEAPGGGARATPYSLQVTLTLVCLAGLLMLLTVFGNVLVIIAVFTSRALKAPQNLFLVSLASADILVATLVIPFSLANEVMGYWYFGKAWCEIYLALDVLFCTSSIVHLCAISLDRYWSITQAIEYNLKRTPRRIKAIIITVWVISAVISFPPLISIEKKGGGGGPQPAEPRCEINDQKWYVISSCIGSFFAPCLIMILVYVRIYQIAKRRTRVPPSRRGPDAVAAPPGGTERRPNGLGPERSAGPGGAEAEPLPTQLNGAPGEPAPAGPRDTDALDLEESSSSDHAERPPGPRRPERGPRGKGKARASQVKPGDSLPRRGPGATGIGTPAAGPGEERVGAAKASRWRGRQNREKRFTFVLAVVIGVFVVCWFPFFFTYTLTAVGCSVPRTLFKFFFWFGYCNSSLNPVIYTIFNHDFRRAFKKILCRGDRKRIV

Setting [7] is: DRD2S, GPCR, ANT (antagonist), read-out: IC50.
Setting [8] is: HTR2A, GPCR, ANT (antagonist), read-out: IC50.
The mark [9] stands for this setting: CHRM2, GPCR, AGN (agonist), read-out: EC50.
Setting [10] is: HTR3A, ion channel, OP (opener), read-out: EC50.
Setting [11] is: HTR2A, GPCR, AGN (agonist), read-out: EC50.
The mark [12] stands for this setting: NET, transporter, BL (blocker), read-out: IC50.
Where [13] appears, read: CHRM1, GPCR, ANT (antagonist), read-out: IC50.
The mark [14] stands for this setting: OPRD1, GPCR, AGN (agonist), read-out: EC50.
The mark [15] stands for this setting: DRD2S, GPCR, AGN (agonist), read-out: EC50.
Setting [16] is: CHRM2, GPCR, ANT (antagonist), read-out: IC50.
The mark [17] stands for this setting: AVPR1A, GPCR, AGN (agonist), read-out: EC50.
Setting [18] is: ADRA2A, GPCR, ANT (antagonist), read-out: IC50.
Setting [19] is: HTR2B, GPCR, AGN (agonist), read-out: EC50.

T2 sequence (P28223 whole entry): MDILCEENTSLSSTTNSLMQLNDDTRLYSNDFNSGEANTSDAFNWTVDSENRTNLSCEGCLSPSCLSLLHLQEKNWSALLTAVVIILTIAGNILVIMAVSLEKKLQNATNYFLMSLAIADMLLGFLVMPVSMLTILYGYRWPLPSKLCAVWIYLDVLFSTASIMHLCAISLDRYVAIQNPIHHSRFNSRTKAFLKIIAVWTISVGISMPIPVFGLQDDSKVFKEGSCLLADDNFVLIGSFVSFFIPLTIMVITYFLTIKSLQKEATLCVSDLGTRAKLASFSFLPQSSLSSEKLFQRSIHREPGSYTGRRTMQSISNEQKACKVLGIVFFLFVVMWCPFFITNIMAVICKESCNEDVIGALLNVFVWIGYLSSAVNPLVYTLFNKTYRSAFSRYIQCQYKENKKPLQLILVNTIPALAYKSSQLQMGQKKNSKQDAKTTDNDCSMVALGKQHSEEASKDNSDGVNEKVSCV
Sequence of HTR2B (5-HT2B) (P41595 whole entry): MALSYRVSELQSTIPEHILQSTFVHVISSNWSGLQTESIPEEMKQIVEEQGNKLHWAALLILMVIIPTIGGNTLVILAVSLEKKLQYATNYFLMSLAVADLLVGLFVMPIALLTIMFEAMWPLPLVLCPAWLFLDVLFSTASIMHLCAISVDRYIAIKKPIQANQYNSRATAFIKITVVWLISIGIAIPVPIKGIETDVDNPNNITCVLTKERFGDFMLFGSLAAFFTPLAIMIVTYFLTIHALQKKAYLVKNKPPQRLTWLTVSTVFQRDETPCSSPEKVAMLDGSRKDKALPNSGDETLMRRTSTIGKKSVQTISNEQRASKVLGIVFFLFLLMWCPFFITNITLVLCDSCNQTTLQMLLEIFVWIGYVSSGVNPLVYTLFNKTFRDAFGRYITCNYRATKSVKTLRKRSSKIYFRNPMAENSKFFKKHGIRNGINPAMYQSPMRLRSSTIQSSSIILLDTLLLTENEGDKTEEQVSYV
Sequence of NET (P23975 whole entry): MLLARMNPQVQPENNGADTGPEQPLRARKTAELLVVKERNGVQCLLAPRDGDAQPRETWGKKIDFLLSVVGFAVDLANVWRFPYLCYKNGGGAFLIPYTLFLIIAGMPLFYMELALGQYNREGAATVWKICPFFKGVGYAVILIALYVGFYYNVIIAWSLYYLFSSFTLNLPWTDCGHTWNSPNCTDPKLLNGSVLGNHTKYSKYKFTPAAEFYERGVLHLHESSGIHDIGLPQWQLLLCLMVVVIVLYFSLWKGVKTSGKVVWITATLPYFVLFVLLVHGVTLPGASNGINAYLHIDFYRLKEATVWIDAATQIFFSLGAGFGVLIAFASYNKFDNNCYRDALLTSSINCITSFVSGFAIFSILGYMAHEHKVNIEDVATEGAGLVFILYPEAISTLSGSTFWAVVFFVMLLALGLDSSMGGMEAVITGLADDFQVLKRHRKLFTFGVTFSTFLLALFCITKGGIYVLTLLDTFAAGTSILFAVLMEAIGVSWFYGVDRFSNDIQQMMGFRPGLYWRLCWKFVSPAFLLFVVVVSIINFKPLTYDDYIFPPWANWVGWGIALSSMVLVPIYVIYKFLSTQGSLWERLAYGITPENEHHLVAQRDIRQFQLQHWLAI
Sequence of AVPR1A (P37288 whole entry): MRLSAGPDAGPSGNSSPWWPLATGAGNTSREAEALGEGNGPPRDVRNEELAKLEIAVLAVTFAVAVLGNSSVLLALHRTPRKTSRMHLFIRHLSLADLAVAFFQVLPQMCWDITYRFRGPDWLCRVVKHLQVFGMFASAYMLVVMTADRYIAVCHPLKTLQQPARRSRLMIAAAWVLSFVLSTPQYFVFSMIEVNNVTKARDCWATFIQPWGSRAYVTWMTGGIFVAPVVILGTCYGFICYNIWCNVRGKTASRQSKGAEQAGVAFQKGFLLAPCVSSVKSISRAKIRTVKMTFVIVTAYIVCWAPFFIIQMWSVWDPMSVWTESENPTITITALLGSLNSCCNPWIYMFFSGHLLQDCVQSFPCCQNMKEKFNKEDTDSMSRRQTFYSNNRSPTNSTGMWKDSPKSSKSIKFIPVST
Sequence of OPRD1 (P41143 whole entry): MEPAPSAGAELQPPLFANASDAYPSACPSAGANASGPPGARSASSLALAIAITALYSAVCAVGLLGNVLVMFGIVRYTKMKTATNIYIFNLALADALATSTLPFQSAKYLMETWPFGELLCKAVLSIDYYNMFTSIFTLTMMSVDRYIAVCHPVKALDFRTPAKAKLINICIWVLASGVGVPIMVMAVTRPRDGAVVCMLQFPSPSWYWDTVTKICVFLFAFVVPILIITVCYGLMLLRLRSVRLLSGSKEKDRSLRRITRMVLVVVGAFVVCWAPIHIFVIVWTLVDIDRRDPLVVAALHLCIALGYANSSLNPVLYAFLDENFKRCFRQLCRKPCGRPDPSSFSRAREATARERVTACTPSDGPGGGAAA

What is called pIC50 is the negative decadic logarithm of the IC50, by convention in mol/L. For orientation: pEC50 means the negative decadic logarithm of the EC50, by convention in mol/L. On to `CN(C)Cc1c[nH]c2cccc(O[Si](C)(C)C(C)(C)C)c12` [A(IV)], for which the pIC50 on DRD2S [1] (setting [7]) is below 4.00; at HTR2A [2] (setting [8]) it was 6.07; at NET (setting [12]), below 4.00; on CHRM1 (setting [13]), 4.59; at CHRM2 [6] (setting [16]), below 4.00; on ADRA2A (setting [18]), 4.80. Also, the pEC50 is below 4.00 on CHRM2 [3] (setting [9]); below 4.00 on HTR3A (5-HT3A) (setting [10]); 4.47 on HTR2A [4] (setting [11]); 4.54 on OPRD1 (setting [14]); 4.90 on DRD2S [5] (setting [15]); below 4.00 at AVPR1A (setting [17]). Also, the pEC50 at HTR2B (5-HT2B) (setting [19]) was below 4.00.
Consider `CC(C)[Si](Oc1cccc2[nH]cc(CN(C)C)c12)(C(C)C)C(C)C` [A(V)], for which the negative logarithm of the IC50 (pIC50) at DRD2S [1] (setting [7]) is below 4.00; on HTR2A [2] (setting [8]), 5.16; at NET (setting [12]) it was 4.72; on CHRM1 (setting [13]), below 4.00; at CHRM2 [6] (setting [16]) it was below 4.00; at ADRA2A (setting [18]) it was below 4.00. The pEC50 at CHRM2 [3] (setting [9]) was below 4.00; at HTR3A (5-HT3A) (setting [10]) it was below 4.00; at HTR2A [4] (setting [11]), below 4.00; at OPRD1 (setting [14]), 4.48; at DRD2S [5] (setting [15]), below 4.00; at AVPR1A (setting [17]), below 4.00. Also, the pEC50 on HTR2B (5-HT2B) (setting [19]) was below 4.00.
Take `CN(C)CCc1c[nH]c2cccc(OC(=O)OCc3ccccc3)c12` [B(II)]: the pIC50 at DRD2S [1] is 4.91; on HTR2A [2] (setting [8]) it was 6.04; against NET, 4.58; on CHRM1, 4.61; against CHRM2 [6], below 4.00; at ADRA2A, 5.04. Moreover, the pEC50 at CHRM2 [3], on HTR3A (5-HT3A), at HTR2A [4] (setting [11]), at OPRD1, at DRD2S [5] and at AVPR1A was below 4.00 each time. On HTR2B (5-HT2B), this molecule had a pEC50 below 4.00.
For the molecule `CN(C)CCc1c[nH]c2cccc(OC(=O)OCC3CC3)c12` [B(III)], the pIC50 at DRD2S [1] (setting [7]) was below 4.00; at HTR2A [2] (setting [8]), 6.53; at NET (setting [12]) it was below 4.00; on CHRM1 (setting [13]) it was 4.28; on CHRM2 [6] (setting [16]), below 4.00; at ADRA2A (setting [18]), below 4.00. In addition, the pEC50 at CHRM2 [3] (setting [9]) is below 4.00; at HTR3A (5-HT3A) (setting [10]), below 4.00; at HTR2A [4] (setting [11]), below 4.00; at OPRD1 (setting [14]), below 4.00; at DRD2S [5] (setting [15]), 5.42; on AVPR1A (setting [17]), below 4.00. The pEC50 on HTR2B (5-HT2B) (setting [19]) was below 4.00.
`CCCCC(=O)OCOc1cccc2[nH]cc(CCN(C)C)c12` [D(III)]: the pIC50 is below 4.00 on DRD2S [1] (setting [7]); 6.23 at HTR2A [2] (setting [8]); below 4.00 at NET (setting [12]); 4.28 at CHRM1 (setting [13]); below 4.00 at CHRM2 [6] (setting [16]); below 4.00 on ADRA2A (setting [18]). For the same molecule, the pEC50 was below 4.00 at CHRM2 [3] (setting [9]); below 4.00 at HTR3A (5-HT3A) (setting [10]); below 4.00 at HTR2A [4] (setting [11]); below 4.00 on OPRD1 (setting [14]); 4.75 on DRD2S [5] (setting [15]); below 4.00 on AVPR1A (setting [17]). Besides, the pEC50 on HTR2B (5-HT2B) (setting [19]) was below 4.00.
Consider `CCCC(=O)OCOc1cccc2[nH]cc(CCN(C)C)c12` [D(IV)], for which the pIC50 at DRD2S [1] (setting [7]) was below 4.00; at HTR2A [2] (setting [8]), 5.90; at NET (setting [12]), below 4.00; at CHRM1 (setting [13]), below 4.00; at CHRM2 [6] (setting [16]), below 4.00; at ADRA2A (setting [18]), below 4.00. Also, the pEC50 at CHRM2 [3] (setting [9]) is below 4.00; on HTR3A (5-HT3A) (setting [10]), below 4.00; on HTR2A [4] (setting [11]) it was below 4.00; at OPRD1 (setting [14]) it was 4.27; at DRD2S [5] (setting [15]), 4.56; on AVPR1A (setting [17]), below 4.00. For the same molecule, the negative-log EC50 (pEC50) at HTR2B (5-HT2B) (setting [19]) was below 4.00.
Consider `CC(C)OC(=O)OCOc1cccc2c1c(CCN(C)C)cn2COC(=O)OC(C)C` [D(XIII)], for which the negative logarithm of the IC50 (pIC50) was below 4.00 at DRD2S [1] (setting [7]); 4.79 on HTR2A [2] (setting [8]); below 4.00 on NET (setting [12]); below 4.00 at CHRM1 (setting [13]); 4.18 on CHRM2 [6] (setting [16]); below 4.00 at ADRA2A (setting [18]). Further, the pEC50 on CHRM2 [3] (setting [9]) was below 4.00; on HTR3A (5-HT3A) (setting [10]), below 4.00; on HTR2A [4] (setting [11]), below 4.00; on OPRD1, below 4.00; on DRD2S [5] (setting [15]) it was 4.11; at AVPR1A (setting [17]), below 4.00. Moreover, the pEC50 at HTR2B (5-HT2B) (setting [19]) is below 4.00.
Consider `CN(C)CCc1c[nH]c2cccc(OP(=O)(Oc3ccccc3)Oc3ccccc3)c12` [F(I)], for which the pIC50 is below 4.00 on DRD2S [1]; 6.77 against HTR2A [2]; 4.38 at NET; 4.40 at CHRM1 (setting [13]); 4.37 against CHRM2 [6]; 4.39 at ADRA2A. The pEC50 is below 4.00 at CHRM2 [3]; below 4.00 on HTR3A (5-HT3A); below 4.00 on HTR2A [4]; below 4.00 at OPRD1; 5.51 at DRD2S [5]; below 4.00 at AVPR1A. At HTR2B (5-HT2B), this molecule gave a pEC50 below 4.00.
